For series [1], the system named is HEK293 GFP Parkin cells. Description: High throughput small molecule screen for Parkin recruitment to mitochondria (high content imaging). In kind it is cell-based. The conditions noted are these: for rank in the kinase inhibitor library screen (rank order by z-score): 4 μM, 16 h, then CCCP 2 h, rank out of 480, low rank = activator of Parkin recruitment, high rank = inhibitor. On the procedure: 10 uL of 0.1 mg/mL Poly-D-Lys solution was added to 384-well plates for 5 minutes, followed by a PBS wash. Plates were dried for at least 2 hours. 50 μL of 600 000 HEK293 GFP Parkin cell/mL of DMEM was dispensed into each well. After 24 hours incubation to allow the cells to adhere, 200 nL of small molecules (or DMSO in columns 1, 2, 23 and 24) were pinned. Following a 16-hour incubation, 200 nL of 5 mM CCCP were added to all wells except columns 1 and 2, into which 200 nL of DMSO was added. Following 2-hour incubation, cells were fixed with 4% paraformaldehyde (PFA) and stained with 50 μL of 1 μg/mL DAPI solution for 15 minutes. After the final PBS wash, plates were ready for high content microscopy.
Images were acquired on IN Cell Analyzer 6000 (GE Healthcare), equipped with sCMOS camera (2048×2048), and 20x/0.45 NA Plan Fluor objective (Nikon) in open aperture mode using 1×1 binning. Image analysis was performed using Columbus Image Analysis System (PerkinElmer). Nuclei were initially detected in DAPI channel, followed by whole cell segmentation in GFP channel. Using PhenoLOGIC machine learning plug-in, cells were split into 2 sub-populations: cells with even GFP-Parkin distribution and cells where GFP-Parkin was localized to mitochondria. The percentage of cells with mitochondrial GFP-Parkin was determined per well. The molecules were then rank ordered based on z-score, which is calculated using the formula: […]
where x is the percentage of cells with mitochondrial GFP-Parkin for a specific small molecule, μ is the average percentage of cells with mitochondrial Parkin in positive control columns 23 and 24, where cells are treated with CCCP only.
These cell lines were screened across 2 biological replicates with compounds from the kinase inhibitor (n=480) and Prestwick (n=1120) collections. The 3-day screening protocol consisted of (1) seeding cells, (2) pinning small molecules at 4 μM concentration and (3) inducing mitophagy with CCCP, followed by processing of plates for high content imaging. Following image acquisition, DAPI staining was used to segment cells within each image. Supervised machine learning was used to classify cells into two classes: (1) cells with cytosolic Parkin distribution and (2) those with Parkin localized to mitochondria. […] Compounds which increased the proportion of class 2 cells across 2 biological replicates, compared to the CCCP-only treated cells (FIG. 10), as indicated by their z-score (FIG. 11), were considered hits.

For a further series, the system named is S2R+ cells. Description: mitoSOX mitochondrial superoxide staining. The format is cell-based. The conditions noted are these: toxin alone. The procedure: A) Staining was performed with mitoSOX Red Mitochondrial Superoxide dye. B) Quantification of the fluorescence intensity of the mitoSOX probe in the indicated treatments (n=3). Data is presented as mean±s.e.m. P-values were determined by paired student's t-test, *P-value<0.05.
Whether SR3677 may protect against paraquat-induced phenotypes by interfering with paraquat's activity was also assessed. Paraquat gives rise to mitochondrial superoxide species that can be detected using mitoSOX, a fluorescent probe that is targeted to mitochondria, where it may be oxidized by superoxides. The oxidized mitoSOX species fluoresces upon encountering nucleic acid. The fluorescence intensity of Schneider's S2-R^+ cells, a cell line derived from dissociated embryos with a flat morphology amenable to imaging, was assessed following treatments with paraquat or paraquat and SR3677.

In the next series the test system is Canton(S) flies. The format is in vivo, Drosophila. The conditions noted are these: 10 mM paraquat in food.
A further series deals with Drosophila. In kind it is in vivo. The conditions noted are these: Canton(S), 10 mM paraquat. The procedure:
Fresh vials containing standard fly food supplemented with the indicated treatments were changed out every 2 days. The number of flies surviving each day was counted and log-rank tests were performed to determine statistical significance. 20 flies per treatment, n=5 (c) The climbing ability of flies treated as described in (a and bin) was assessed 4 days following initial administration of treatments. The number of flies to climb beyond 9.5 cm every 10 seconds was assessed. The percentage of flies in each treatment to cross this line was determined. The climbing ability of each treatment was normalized to the control group treated with water only. 20 flies per treatment, n=5. (d) The climbing ability of UAS-park^RNAi and ddc-GAL4>UAS-park^RNAi flies fed either paraquat or paraquat in combination with SR3677. 20 flies per treatment, n=7. (e) Proteins lysates from UAS-park^RNAi or tubulin>UAS-park^RNAi whole flies were separated by SDS-PAGE. Immunoblotting with anti-Parkin and anti-actin antibody was performed. (f) The climbing ability of TH-GAL flies fed either paraquat or paraquat in combination with SR3677. (g) Survival of heteroplasmic mt:Coll^T300l flies fed fly food supplemented with water or 2 mM SR3677 and wild-type Canton(S) flies (n=3 independent experiments). (h) The climbing ability of heteroplasmic mt:Coll^T300l flies fed either water or 2 mM SR3677 for 7 days. Log-rank tests were performed to determine p-values for survival analyses (a, b, g), *P<0.05. P-values were determined by one-tailed paired student's t-test for all climbing assays (c-e, h), *P<0.05. Data is expressed as mean±s.e.m. All error bars represent s.e.m
Male Canton(S) Drosophila were aged 7 days prior to feeding with standard fly food supplemented with water, 10 mM paraquat, 1 mM SR3677, or with combinations of these chemicals. Flies were placed into new vials containing fresh food supplemented with the treatments previously administered and 2 days later, climbing assays were performed. Flies were placed into plastic cylinder vials and tapped down, so all flies fell to the bottom. The number of flies to climb beyond 12.5 cm was counted every 10 s and values are represented as the percentage of total flies in each treatment group.

Series [2] has as its system differentiated SH-SY5Y cells. Description: Cell viability determination (ATP levels normalized to protein). The format is cell-based. The conditions noted are these: 500 μM, 24 hours. The procedure:
SH-SY5Y cells were differentiated according to previously established protocol consisting of sequential treatment with retinoic acid followed by brain-derived neurotrophic factor^10. Cells were then seeded into white 96-well plates with white bottom and allowed to adhere overnight. Varying doses of SR3677 were combined with 500 μM paraquat and administered for 24 hours. Controls treated with 0.5 μM SR3677, equivalent volume DMSO and paraquat alone were also included. Following 24-hour incubation, cell media was aspirated and THE lysis buffer (50 mM Tris-HCl, 100 mM NaCl, 0.1 mM EDTA) containing protease inhibitor cocktail was added to each well. Half of the lysate volume was removed and aliquoted into a separate 96-well plate. ATP levels were measured in the opaque plate using the ATP determination (ThermoFisher A22066) assay kit and protein concentrations were measured using the Pierce BCA (ThermoFisher #23225) assay kit. ATP levels were normalized to protein concentration and then by the ratio for cells treated with paraquat alone in a control well on each plate.

The subject of series [3] is HEK293 GFP Parkin cells. Description: Immunoblotting of mitochondrial protein degradation after CCCP. The format is cell-based. The conditions noted are these: 10 μM CCCP. The procedure:
(a) HEK293 GFP Parkin cells were treated with varying doses of SR3677 for 2 hours prior to induction of mitophagy with 10 μM CCCP for one hour. The percentage of cells with mitochondrial Parkin increased in a dose-dependent manner. […] Cell lysates were harvested, proteins were separated by SDS-PAGE and immunoblotting was performed with anti-Mfn2 and anti-actin antibodies. (c) Ponceau VDAC1 levels in each sample normalized to Ponceau staining. (d) Mfn2/actin levels in CCCP treated cells. (e) Densitometry analysis was performed to quantify Mfn2 and VDAC1 levels in each sample (n=4 independent experiments).
HEK293 GFP Parkin cells co-treated with 0.5 μM SR3677 or DMSO and 10 μM CCCP for the indicated time (hours). Cell lysates were separated by SDS-PAGE and immunoblotting was performed to assess turnover of IMM/matrix substrates (A) ATP5A, (B) UQCRC2 and (C) COXIV. Densitometry analysis was performed. Protein levels were normalized to Ponceau. Data is expressed as mean±s.e.m (n=6, 7 and 8 for a, b and c, respectively. 4) P-values were determined by paired student's t-test, *P<0.05.
Lysates were harvested using lysis buffer (0.1M Tris HCl, 0.01% SDS, pH 9) with 1× protease inhibitor cocktail (BioShop, PIC002.1). Lysates were then heated at 95° C. for 20 minutes with vortexing performed at 5-minute intervals. The BCA assay (Pierce, 23227) was performed to determine protein concentration, to standardize protein loading across samples to be compared. 12% SDS-PAGE gels were used to run samples to be analyzed for LC3 conversation and for Tom20 and 10% gels were run for all other samples. Transfer of proteins onto PVDF membrane (Immobilon, IPVH00010) was performed at 110V for 80 minutes or at 36V for 8 hours. Membranes were blocked with 5% skim milk in TBST (1×TBS, 0.1% Tween-20 [BioShop, 1M23298]) for 30 minutes prior to incubation in primary antibodies at a dilution of 1:1000 for all antibodies except anti-ROCK2 and anti-LC3, which were used at a dilution of 1:5000. Visualization of proteins was performed using ECL (BioRad, 11705062).
Densitometry was performed by normalizing bands corresponding to the protein of interest to a loading control such as actin using ImageLab 6.0 software (BioRad).
(A western blot detects proteins with antibodies after separation by electrophoresis.)

Another series addresses ROCK2 (Homo sapiens, UniProt O75116). The conditions noted are these: biochemical and cell-based assays, previous studies; cited from earlier work.
The subject of series [4] is HEK293 GFP Parkin cells. Description: Parkin recruitment assay. The format is cell-based. On the procedure:
HEK293 GFP Parkin cells were seeded into 12-well plates containing coverslips. Cells were treated with small molecules for 2 hours prior to mitophagy induction with 10 μM CCCP, unless indicated otherwise. Following fixation with 4% PFA, immunostaining was carried out using anti-ATP5A primary antibody and anti-mouse Alex Fluor 568.
To measure the percentage of cells with Parkin localized to mitochondria a 2 step process was employed: (1) whole cell segmentation based on GFP Parkin using CellProfiler software and (2) classification into Parkin distribution subpopulation using CellProfiler Analyst. The percentage of cells with Parkin localized to mitochondria was determined in each image. Images were taken at 20× magnification for this experiment, resulting in the classification of at least 300 cells in each treatment group per trial.

The conditions of series [5]: cited from earlier work.

ROCK2, sequence (O75116 whole entry): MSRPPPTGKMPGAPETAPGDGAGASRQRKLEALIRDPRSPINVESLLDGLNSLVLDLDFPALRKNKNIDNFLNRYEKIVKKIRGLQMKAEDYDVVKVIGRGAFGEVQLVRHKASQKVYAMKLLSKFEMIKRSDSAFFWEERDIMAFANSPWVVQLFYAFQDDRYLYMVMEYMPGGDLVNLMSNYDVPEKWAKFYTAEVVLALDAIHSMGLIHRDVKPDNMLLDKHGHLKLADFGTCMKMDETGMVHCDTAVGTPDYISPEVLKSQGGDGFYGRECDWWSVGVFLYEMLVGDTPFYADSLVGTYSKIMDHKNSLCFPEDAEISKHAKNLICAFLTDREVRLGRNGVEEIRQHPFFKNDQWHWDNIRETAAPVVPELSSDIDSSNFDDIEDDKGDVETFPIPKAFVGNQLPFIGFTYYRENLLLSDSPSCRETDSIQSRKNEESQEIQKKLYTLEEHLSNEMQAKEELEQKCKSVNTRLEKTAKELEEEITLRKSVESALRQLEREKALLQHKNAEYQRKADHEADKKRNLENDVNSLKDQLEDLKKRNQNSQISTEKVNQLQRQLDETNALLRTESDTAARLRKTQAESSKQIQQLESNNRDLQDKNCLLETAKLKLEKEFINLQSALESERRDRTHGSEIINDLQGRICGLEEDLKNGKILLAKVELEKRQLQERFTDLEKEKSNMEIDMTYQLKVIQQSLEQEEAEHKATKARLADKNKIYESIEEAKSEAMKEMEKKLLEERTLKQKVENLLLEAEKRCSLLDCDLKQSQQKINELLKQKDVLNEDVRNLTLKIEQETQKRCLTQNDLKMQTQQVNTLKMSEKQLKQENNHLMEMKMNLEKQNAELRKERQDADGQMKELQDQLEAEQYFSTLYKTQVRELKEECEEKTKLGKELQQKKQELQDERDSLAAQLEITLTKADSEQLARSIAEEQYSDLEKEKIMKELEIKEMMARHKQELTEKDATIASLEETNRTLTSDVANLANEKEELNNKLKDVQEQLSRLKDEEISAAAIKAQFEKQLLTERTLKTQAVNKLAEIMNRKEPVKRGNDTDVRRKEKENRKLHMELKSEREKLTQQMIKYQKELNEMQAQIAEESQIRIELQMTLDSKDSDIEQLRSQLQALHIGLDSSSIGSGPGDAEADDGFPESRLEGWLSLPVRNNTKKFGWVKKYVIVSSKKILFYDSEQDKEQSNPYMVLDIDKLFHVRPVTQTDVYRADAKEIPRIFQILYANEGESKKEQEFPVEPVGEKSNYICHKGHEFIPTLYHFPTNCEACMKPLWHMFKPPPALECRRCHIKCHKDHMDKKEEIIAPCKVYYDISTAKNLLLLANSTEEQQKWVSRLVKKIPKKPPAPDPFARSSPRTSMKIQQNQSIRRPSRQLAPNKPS
Protocol for Canton(S) flies: Fresh vials containing standard fly food supplemented with the indicated treatments were changed out every 2 days. The number of flies surviving each day was counted and log-rank tests were performed to determine statistical significance. […] The number of flies to climb beyond 9.5 cm every 10 seconds was assessed. The percentage of flies in each treatment to cross this line was determined. The climbing ability of each treatment was normalized to the control group treated with water only. […] Log-rank tests were performed to determine p-values for survival analyses (a, b, g), *P<0.05. P-values were determined by one-tailed paired student's t-test for all climbing assays (c-e, h), *P<0.05. Data is expressed as mean±s.e.m. All error bars represent s.e.m
Drosophila aged 7 days are fed food supplemented with either water (control), 1 mM SR3677, 10 mM paraquat or SR3677 in combination with paraquat. The survival of flies was recorded each day following administration of the treatments and climbing abilities were tested every 2 days by performing negative geotaxis assays.

As to `NC(=O)Nc1cc(-c2cccc(F)c2)sc1C(=O)N[C@H]1CCCNC1` [AZD-7762], the “rank in the kinase inhibitor library screen (rank order by z-score)” value in the series with HEK293 GFP Parkin cells [1] was 413/480.

With `O=c1[nH]c2ccc(Cl)cc2c(N[C@@H]2CN3CCC2CC3)c1-c1nc2ccccc2[nH]1` [CHIR-124], in the series with HEK293 GFP Parkin cells [1], the “rank in the kinase inhibitor library screen (rank order by z-score)” value was 403/480.

Take `NC(=O)c1ccc2nc(-c3ccc(Oc4ccc(Cl)cc4)cc3)[nH]c2c1` [Chk2 inhibitor II]: in the series on HEK293 GFP Parkin cells [1], the “rank in the kinase inhibitor library screen (rank order by z-score)” value was 402/480.

As to `C[n+]1ccc(-c2cc[n+](C)cc2)cc1` [Paraquat], the “fluorescence intensity of mitoSOX” value in the series on S2R+ cells is on record as “increases the fluorescence intensity of mitoSOX”. In addition, the “survival of flies, paraquat alone” value with Canton(S) flies is given as “reduced”. The “climbing ability, paraquat alone” value in the series with Drosophila is recorded as “impairs the climbing ability of flies over time”. Also, the “cell viability, paraquat alone” value in [2] is “reduced the viability of cells”.

As for `CN[C@@H]1C[C@H]2O[C@@](C)([C@@H]1OC)n1c3ccccc3c3c4c(c5c6ccccc6n2c5c31)C(=O)NC4` [Staurosporine], in the series on HEK293 GFP Parkin cells [1] (known activator of Parkin-mediated mitophagy), the “position among hits of the screen” value is listed as at most 0.3%.

With `Cc1cnc(Nc2ccc(OCCN3CCCC3)cc2)nc1Nc1cccc(S(=O)(=O)NC(C)(C)C)c1` [TG-101348], the “rank in the kinase inhibitor library screen (rank order by z-score)” value in the series on HEK293 GFP Parkin cells [1] is reported as 418/480.

On to `C[C@@H](N)c1ccc(C(=O)Nc2ccnc3[nH]ccc23)cc1` [Y39983], for which the “concentration administered to enhance Mfn2 degradation” value with HEK293 GFP Parkin cells [3] stood at 10 µM. The “Mfn2 degradation following CCCP” value in the series on HEK293 GFP Parkin cells [3] (2 h pre-treatment, Y39983 10 μM, SR3677 0.5 μM) was “Increased degradation of Mfn2”. The ROCK2 inhibition result at ROCK2 was “sufficiently inhibit both ROCK1 and ROCK2”. The “rank in the kinase inhibitor library screen (rank order by z-score)” value in the series on HEK293 GFP Parkin cells [1] is 5/480. In the series with HEK293 GFP Parkin cells [4] (10 μM, 2-hour treatment, CCCP), the “Parkin recruitment on re-test” value is recorded as “recapitulated the effects observed following overnight incubation”. Also, the “Parkin distribution in the absence of CCCP” value in the series with HEK293 GFP Parkin cells [4] (compound alone) is on record as “diffuse”. For the same compound, the cell permeability entry in series [5] is listed as “poor cell permeability”.

As for `CC(C)(C)OO` [luperox], in the series with S2R+ cells, the “fluorescence intensity of mitoSOX” value is listed as “increases the fluorescence intensity of mitoSOX”.

For `O=C(Nc1ccncc1)Nc1c(Cl)cc(Cl)cc1Cl` [rho kinase inhibitor II], the “class in the screen (FIG. 1b)” value in the series with HEK293 GFP Parkin cells [1] (ROCK inhibitors, 4 μM plus CCCP) is given as “Enhancers of Parkin recruitment”.

Source of the values: patent publication US20220074923A1, “METHODS OF IDENTIFYING PARKIN-MEDIATED MITOPHAGY ACTIVATING AGENTS” (THE GOVERNING COUNCIL OF THE UNIVERSITY OF TORONTO, priority 2018, published 2022).
